Measurements reported in patent US5908781A, “Monoclonal antibodies to ceftiofur” (The United States of America as represented by the …, priority 1996, dated 1999).

What was measured:
[1] = biological target: Cef-68; assay: Competitive indirect ELISA (ciELISA), competitor inhibition of MAb Cef-68 binding; parameters: species or system Balb/c mice; conditions: for IC50 (ppb) Values for Antibodies, Cef-68: MAb Cef-68, final dilution 1:20, BSA-S-GMBS-Cef-coated plates, value ± standard deviation, average of 3-6 determinations; for binding with MAb Cef-68 (in words): ciELISA cross-reactivity
Method: (§1) The supernatant culture fluid from the cloned hybridomas may also be screened to select for those producing antibodies having a high affinity for ceftiofur. Affinity may be measured using a variety of well known techniques, such as ELISA, RIA or equilibrium dialysis using labeled ceftiofur. […] In accordance with this embodiment, the antibody containing supernatant is added to a ceftiofur or ceftiofur-complex coated substrate such as the wells of a microtiter plate, together with a range of concentrations of free ceftiofur as a competitor. Following incubation and washing, bound antibody in the wells is determined in the same manner as the db-ELISA. Percent inhibition may be calculated as (1-B/Bo)×100, where B is the optical density (OD) of a well with a competitor and Bo is the mean OD of the wells without competitor (control). […] However, for greater accuracy, the affinity may be alternatively measured at 50% inhibition (IC50).
(§2) Antibodies and ELISA Methods. A standard indirect ELISA method in which the hapten conjugate is immobilized on 96-well microtiter plates was used to evaluate the response of Balb/c mice towards the immunogen KLH-SMCC-desCef. The microtiter immunoplates (PGC Scientifics, Gaithersburg, Md.) were washed three times with a solution of 0.05% (v/v) polyoxyethylene sorbitan monolaurate (TWEEN 20)(Sigma Chemical Co., St. Louis, Mo.) in deionized water (TWEEN 20-water) and then coated with 100 μL of the coating antigen, BSA-SMCC-desCef (100 ng/well) in deionized water. The plates were dried overnight at 37° C. The plates were then washed three times with PBS-9 (0.01M sodium phosphate, 0.15M sodium chloride, pH 9) and the unbound active sites were blocked with 200 μL of 3% (w/v) nonfat milk in PBS-9 for 30 min at 37° C. The plates were washed three times with PBS-9, and 100 μL of supernatant containing the antibody was added to the microtiter plates, which were subsequently incubated for 60 min at 37° C. The unbound antibody was removed by washing the plate five times with TWEEN 20-water. Next, 50 μL of goat anti-mouse IgG-peroxidase conjugate (1:500 dilution)(Sigma Chemical Co., St. Louis, Mo.) was added, followed by incubation of the plates at 37° C. for 60 min. Finally, the plates were washed five times with TWEEN 20-water, 100 μL of K-blue substrate (Elisa Technologies, Lexington, Ky.) was added, and the absorbance was read at 655 nm.
(§3) For the ciELISA, the plates were prepared as above except that BSA-S-GMBS-Cef was used as the plate-coating antigen. Competitors were prepared in assay buffer (0.1M Tris, 0.15M sodium chloride, 0.01% (w/v) nonfat milk in deionized water, pH 7.75), added to the wells, and diluted in a 2-fold fashion immediately prior to addition of the anticeftiofur monoclonal antibody (Mab). Tissue culture media containing the anticeftiofur MAbs were used at a final dilution of 1:20 and 1:100 (for MAbs Cef-68 and Cef-116, respectively). The following competitors were used in a cross-reactivity study: ceftiofur sodium, cefteram sodium (Hoffmann-La Roche Inc., Nutley, N.J.), ceftriaxone sodium (Hoffmann-La Roche), cefuroxime sodium (Glaxo Man. Serv. Ltd., Barnard Castle, County Durham, England), ceftazidime pentahydrate (Glaxo), amoxicillin, ampicillin sodium, cefaclor, cefadroxil, cefamandole sodium, cefazolin sodium, cefoperazone sodium, cefotaxime sodium, cefoxitin sodium, cefsulodin sodium, cephalothin sodium, cephapirin sodium, cephradine, cloxacillin sodium, and penicillin-G sodium. Except where indicated otherwise, competitors were obtained from Sigma Chemical Co. (St. Louis, Mo.). The competitors were diluted to afford a solution containing a concentration range of 100-1000 ng/well in column 2 of the 96-well microtiter plates. Each competitor was serially diluted across the plate with columns 11 and 12 serving as controls (i.e. no competitor).

[2] = biological target: Cef-116; assay: Competitive indirect ELISA (ciELISA), competitor inhibition of MAb Cef-116 binding; parameters: species or system Balb/c mice; conditions: for IC50 (ppb) Values for Antibodies, Cef-116: MAb Cef-116, final dilution 1:100, BSA-S-GMBS-Cef-coated plates, value ± standard deviation, average of 3-6 determinations; for IC50 compared to ceftiofur, MAb Cef-116 (in words): ciELISA cross-reactivity; for fold reduction of binding: MAb Cef-116, printed "as compared to MAb Cef-68"
Method: as §1, §2, §3

Structure (SMILES) | IC50 (ppb) Values for Antibodies, Cef-68 [1] | IC50 (ppb) Values for Antibodies, Cef-116 [2] | binding with MAb Cef-68 (in words) [1] | fold reduction of binding [2] | IC50 compared to ceftiofur, MAb Cef-116 (in words) [2]
CO/N=C(\C(=O)N[C@@H]1C(=O)N2C(C(=O)O)=C(CSC(=O)c3ccco3)CS[C@H]12)c1csc(N)n1 [Ceftiofur, ceftiofur] | 32.33 ± 0.58 ppb | 0.33 ± 0.05 ppb | – | – | –
CO/N=C(\C(=O)N[C@@H]1C(=O)N2C(C(=O)O)=C(COC(N)=O)CS[C@H]12)c1ccco1 [Cefuroxime, cefuroxime] | – | 406.67 ± 130.13 ppb | – | 100 fold | –

Continued, in another order:

IC50 (ppb) Values for Antibodies, Cef-68 [1] | IC50 (ppb) Values for Antibodies, Cef-116 [2] | binding with MAb Cef-68 (in words) [1] | fold reduction of binding [2] | Structure (SMILES) | IC50 compared to ceftiofur, MAb Cef-116 (in words) [2]
79.67 ± 0.58 ppb | 0.48 ± 0.05 ppb | observed to bind | – | CO/N=C(\C(=O)N[C@@H]1C(=O)N2C(C(=O)O)=C(COC(C)=O)CS[C@H]12)c1csc(N)n1 [Cefotaxime, cefotaxime] | IC50 values comparable to those observed with ceftiofur
200.00 ± 10.00 ppb | 3.57 ± 0.75 ppb | observed to bind | 10 fold | CO/N=C(\C(=O)N[C@@H]1C(=O)N2C(C(=O)O)=C(Cn3nnc(C)n3)CS[C@H]12)c1csc(N)n1 [Cefteram, cefteram] | –
38.67 ± 8.62 ppb | 0.33 ± 0.05 ppb | observed to bind | – | CO/N=C(\C(=O)N[C@@H]1C(=O)N2C(C(=O)O)=C(CSc3nc(=O)c(=O)[nH]n3C)CS[C@H]12)c1csc(N)n1 [Ceftriaxone, ceftriaxone] | IC50 values comparable to those observed with ceftiofur
